# What was measured:
# [1] = molecular target: T1, Poly [ADP-ribose] polymerase tankyrase-1 (Homo sapiens, UniProt O95271); experiment: Inhibition of N-terminal his-tagged human TNKS1 expressed in Escherichia coli Rosette2 (DE3)
# T1 sequence (O95271 whole entry): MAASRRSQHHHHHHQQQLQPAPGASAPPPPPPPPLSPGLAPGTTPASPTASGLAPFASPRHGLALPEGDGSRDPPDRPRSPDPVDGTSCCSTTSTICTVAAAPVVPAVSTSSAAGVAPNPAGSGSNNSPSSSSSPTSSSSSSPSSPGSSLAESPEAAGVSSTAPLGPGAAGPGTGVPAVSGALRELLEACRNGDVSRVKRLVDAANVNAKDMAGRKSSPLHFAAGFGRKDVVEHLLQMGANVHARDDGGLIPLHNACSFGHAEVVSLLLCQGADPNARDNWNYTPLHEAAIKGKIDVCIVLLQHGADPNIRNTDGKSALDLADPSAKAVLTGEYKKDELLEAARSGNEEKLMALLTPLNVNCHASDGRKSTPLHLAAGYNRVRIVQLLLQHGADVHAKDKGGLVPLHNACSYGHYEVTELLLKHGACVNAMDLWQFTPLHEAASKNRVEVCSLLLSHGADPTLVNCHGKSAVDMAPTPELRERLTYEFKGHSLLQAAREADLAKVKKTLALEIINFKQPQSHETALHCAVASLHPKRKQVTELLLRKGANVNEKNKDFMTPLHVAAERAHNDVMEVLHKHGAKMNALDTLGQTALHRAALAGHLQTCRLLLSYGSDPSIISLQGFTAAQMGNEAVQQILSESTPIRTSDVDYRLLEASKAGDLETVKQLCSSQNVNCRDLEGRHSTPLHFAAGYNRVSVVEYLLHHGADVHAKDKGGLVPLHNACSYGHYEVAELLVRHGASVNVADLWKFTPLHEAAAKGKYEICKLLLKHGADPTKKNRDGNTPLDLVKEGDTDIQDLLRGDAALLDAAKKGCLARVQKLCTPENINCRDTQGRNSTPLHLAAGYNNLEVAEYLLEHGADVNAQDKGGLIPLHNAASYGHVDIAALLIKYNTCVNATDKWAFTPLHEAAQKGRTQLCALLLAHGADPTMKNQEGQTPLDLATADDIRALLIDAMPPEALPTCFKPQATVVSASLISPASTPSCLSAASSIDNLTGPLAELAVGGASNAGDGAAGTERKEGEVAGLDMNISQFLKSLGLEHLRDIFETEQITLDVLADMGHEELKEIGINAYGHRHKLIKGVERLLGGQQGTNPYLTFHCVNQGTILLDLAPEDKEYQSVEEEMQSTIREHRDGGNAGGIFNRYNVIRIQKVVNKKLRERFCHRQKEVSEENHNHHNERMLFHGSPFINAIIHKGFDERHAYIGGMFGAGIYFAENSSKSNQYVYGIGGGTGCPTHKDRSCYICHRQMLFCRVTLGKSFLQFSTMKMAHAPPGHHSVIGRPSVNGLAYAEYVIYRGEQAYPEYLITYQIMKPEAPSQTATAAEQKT
# [2] = molecular target: T2, Protein mono-ADP-ribosyltransferase PARP15 (Homo sapiens, UniProt Q460N3); experiment: Inhibition of N-terminal his-tagged human PARP15 expressed in Escherichia coli Rosette2 (DE3)
# T2 sequence (Q460N3 whole entry): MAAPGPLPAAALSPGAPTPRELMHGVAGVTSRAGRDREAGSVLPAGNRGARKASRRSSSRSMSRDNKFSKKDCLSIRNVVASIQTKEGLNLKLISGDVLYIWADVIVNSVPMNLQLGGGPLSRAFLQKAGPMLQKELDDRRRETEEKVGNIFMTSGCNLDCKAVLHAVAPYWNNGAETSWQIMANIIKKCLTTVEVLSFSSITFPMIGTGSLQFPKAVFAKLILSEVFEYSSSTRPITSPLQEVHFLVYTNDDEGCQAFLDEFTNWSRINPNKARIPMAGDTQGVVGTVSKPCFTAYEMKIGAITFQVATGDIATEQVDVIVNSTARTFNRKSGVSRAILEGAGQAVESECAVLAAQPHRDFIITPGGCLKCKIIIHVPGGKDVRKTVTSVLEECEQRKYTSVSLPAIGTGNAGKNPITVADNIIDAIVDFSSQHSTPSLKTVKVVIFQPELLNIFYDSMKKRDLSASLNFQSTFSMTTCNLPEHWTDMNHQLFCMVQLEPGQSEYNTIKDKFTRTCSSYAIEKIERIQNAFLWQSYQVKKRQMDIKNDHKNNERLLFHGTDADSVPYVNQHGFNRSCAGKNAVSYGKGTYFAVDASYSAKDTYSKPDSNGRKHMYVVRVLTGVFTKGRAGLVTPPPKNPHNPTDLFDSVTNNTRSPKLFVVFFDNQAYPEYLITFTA
SMILES,IC50 [1],IC50 [2]
NC(=O)c1ccc(Oc2cccc(C(N)=O)c2)cc1,21 µM,1.7 µM
N#Cc1ccc(Oc2ccc(C(N)=O)cc2)cc1,> 100 µM,11 µM

# Reference: ChEMBL document CHEMBL5120882, “Medicinal Chemistry Perspective on Targeting Mono-ADP-Ribosylating PARPs with Small Molecules” (J Med Chem, 2022)
